One compound from ChEMBL document CHEMBL5154702, “Synthesis and biological evaluation of aminobenzamides containing purine moiety as class I histone deacetylases inhibitors” (Bioorg Med Chem, 2022) can be followed below.

Activity calls are given as the source filed them. The rule behind the calls is not given here.

Data set [1] relates to A549. In words: cells. The note with it: Homo sapiens, A549, 48 h. The format is functional, cell-based.
Data set [2] deals with Histone deacetylase 4 (Homo sapiens, UniProt P56524). In words: Inhibition of recombinant human N-terminal GST-fused/C-terminal His-tagged HDAC4 (627 to 1084 residues) expressed in baculovirus infected Sf9 insect cells using fluorogenic HDAC class 2a substrate measured after 30 mins by fluorimetry.
The nature of data set [3]: Half life in rat liver microsomes at 13.8 uM by HPLC analysis. The format is ADME, Microsome. Background: Liver microsomes are a subcellular fraction often used to study metabolism.
In data set [4] the test system is HCT-116. In words: Cell cycle arrest in human HCT-116 cells assessed as increase in accumulation of cells at G0/G1 phase at 10 uM by propidium iodide staining based flow cytometry. The format is functional. The following applies: time 6-24 hrs, TDE = time-dependent effect. For orientation: A flow cytometer gives signals particle by particle.
A short description of data set [5]: Intrinsic clearance in rat liver microsomes assessed per mg protein at 13.8 uM by HPLC analysis. Type of data set: ADME, Microsome.
For data set [6], the system named is HCT-116. In words: Induction of cell morphological changes in human HCT-116 cells assessed as cell fragmentation at 0.5 to 5 uM measured after 24 hrs by phase contrast microscopy. Type of data set: functional, cell-based. The note with it: dose 0.5-5 µM.
Data set [7] concerns HCT-116. In words: Cell cycle arrest in human HCT-116 cells assessed as accumulation of cells at G0/G1 phase at 10 uM measured after 6 hrs by propidium iodide staining based flow cytometry (reference value: 58.05%). The format is functional.
Data set [8] relates to HCT-116. In words: Induction of apoptosis in human HCT-116 cells assessed as necrotic cells at 5 uM measured after 24 hrs by Annexin V-FITC/propidium iodide staining based flow cytometry (reference value: 7.39%). The format is functional.
Data set [9] deals with HCT-116. In words: Induction of apoptosis in human HCT-116 cells assessed as early apoptotic cells at 1 uM measured after 24 hrs by Annexin V-FITC/propidium iodide staining based flow cytometry (reference value: 1.87%). The format is functional.
Data set [10] concerns HCT-116. In words: Cell cycle arrest in human HCT-116 cells assessed as accumulation of cells at G2/M phase at 10 uM measured after 6 hrs by propidium iodide staining based flow cytometry (reference value: 22.74%). Type of data set: functional.
The test system of data set [11] is HCT-116. In words: Antiproliferative activity against human HCT-116 cells measured after 48 hrs by MTT assay. The note with it: HCT-116, 48 h. Type of data set: functional, cell-based. (Tetrazolium assays rely on reduction of a dye to a coloured formazan, in cell work by metabolically active cells.)
The test system of data set [12] is MDA-MB-231. In words: Potency index, ratio of MS-275 IC50 to test compound IC50 for antiproliferative activity against human MDA-MB-231 cells. The format is functional.
For data set [13], the system named is HCT-116. In words: Induction of cell morphological changes in human HCT-116 cells assessed as chromatin condensation at 0.5 to 5 uM measured after 24 hrs by Hoechst 33258 staining based fluorescence microscopy. The format is functional. The note with it: dose 0.5-5 µM.
Data set [14] has as its target T1, Histone deacetylase 8 (Homo sapiens, UniProt Q9BY41).
T1 sequence (Q9BY41 whole entry): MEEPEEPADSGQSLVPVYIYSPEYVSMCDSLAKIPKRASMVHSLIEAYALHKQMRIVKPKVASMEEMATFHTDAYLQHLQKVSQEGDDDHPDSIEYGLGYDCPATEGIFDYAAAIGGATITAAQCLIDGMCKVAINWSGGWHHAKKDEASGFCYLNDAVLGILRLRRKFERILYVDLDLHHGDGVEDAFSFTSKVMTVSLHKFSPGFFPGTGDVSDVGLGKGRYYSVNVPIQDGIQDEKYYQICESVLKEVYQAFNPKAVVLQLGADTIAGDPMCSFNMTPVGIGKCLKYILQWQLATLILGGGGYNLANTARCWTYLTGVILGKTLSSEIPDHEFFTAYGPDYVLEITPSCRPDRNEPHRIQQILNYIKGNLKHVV
In words: Inhibition of human full-length C-terminal His-tagged HDAC8 expressed in baculovirus infected Sf9 insect cell using fluorogenic HDAC class 2a substrate measured after 30 mins by fluorimetry.

Data set [15] deals with HCT-116. In words: Cell cycle arrest in human HCT-116 cells assessed as accumulation of cells at G0/G1 phase at 10 uM measured after 12 hrs by propidium iodide staining based flow cytometry (reference value: 58.05%). Type of data set: functional.
Data set [16] has as its system HCT-116. In words: Induction of apoptosis in human HCT-116 cells assessed as viable cells at 1 uM measured after 24 hrs by Annexin V-FITC/propidium iodide staining based flow cytometry (reference value: 87.3%). The format is functional. The following applies: read-out: Activity.
The subject of data set [17] is HCT-116. In words: Induction of apoptosis in human HCT-116 cells assessed as necrotic cells at 1 uM measured after 24 hrs by Annexin V-FITC/propidium iodide staining based flow cytometry (reference value: 7.39%). The format is functional.
The test system of data set [18] is HCT-116. In words: Induction of apoptosis in human HCT-116 cells assessed as necrotic cells at 0.5 uM measured after 24 hrs by Annexin V-FITC/propidium iodide staining based flow cytometry (reference value: 7.39%). Type of data set: functional.
Data set [19] deals with HCT-116. In words: Cell cycle arrest in human HCT-116 cells assessed as down regulation of CDK2 expression measured after 24 hrs by Western blot analysis. Type of data set: functional, cell-based. The note with it: dose 0.1-10 µM, DDE = dose-dependent effect.
For data set [20], the system named is HCT-116. In words: Cell cycle arrest in human HCT-116 cells assessed as accumulation of cells at G0/G1 phase at 1 uM measured after 24 hrs by propidium iodide staining based flow cytometry (reference value: 58.05%). The format is functional.
Data set [21] deals with HCT-116. In words: Cell cycle arrest in human HCT-116 cells assessed as down regulation of Bcl-2 expression measured after 24 hrs by Western blot analysis. The format is functional, cell-based. The following applies: dose 0.1-10 µM, DDE = dose-dependent effect.

Histone deacetylase 4, sequence (P56524 whole entry, the tested form may be a part): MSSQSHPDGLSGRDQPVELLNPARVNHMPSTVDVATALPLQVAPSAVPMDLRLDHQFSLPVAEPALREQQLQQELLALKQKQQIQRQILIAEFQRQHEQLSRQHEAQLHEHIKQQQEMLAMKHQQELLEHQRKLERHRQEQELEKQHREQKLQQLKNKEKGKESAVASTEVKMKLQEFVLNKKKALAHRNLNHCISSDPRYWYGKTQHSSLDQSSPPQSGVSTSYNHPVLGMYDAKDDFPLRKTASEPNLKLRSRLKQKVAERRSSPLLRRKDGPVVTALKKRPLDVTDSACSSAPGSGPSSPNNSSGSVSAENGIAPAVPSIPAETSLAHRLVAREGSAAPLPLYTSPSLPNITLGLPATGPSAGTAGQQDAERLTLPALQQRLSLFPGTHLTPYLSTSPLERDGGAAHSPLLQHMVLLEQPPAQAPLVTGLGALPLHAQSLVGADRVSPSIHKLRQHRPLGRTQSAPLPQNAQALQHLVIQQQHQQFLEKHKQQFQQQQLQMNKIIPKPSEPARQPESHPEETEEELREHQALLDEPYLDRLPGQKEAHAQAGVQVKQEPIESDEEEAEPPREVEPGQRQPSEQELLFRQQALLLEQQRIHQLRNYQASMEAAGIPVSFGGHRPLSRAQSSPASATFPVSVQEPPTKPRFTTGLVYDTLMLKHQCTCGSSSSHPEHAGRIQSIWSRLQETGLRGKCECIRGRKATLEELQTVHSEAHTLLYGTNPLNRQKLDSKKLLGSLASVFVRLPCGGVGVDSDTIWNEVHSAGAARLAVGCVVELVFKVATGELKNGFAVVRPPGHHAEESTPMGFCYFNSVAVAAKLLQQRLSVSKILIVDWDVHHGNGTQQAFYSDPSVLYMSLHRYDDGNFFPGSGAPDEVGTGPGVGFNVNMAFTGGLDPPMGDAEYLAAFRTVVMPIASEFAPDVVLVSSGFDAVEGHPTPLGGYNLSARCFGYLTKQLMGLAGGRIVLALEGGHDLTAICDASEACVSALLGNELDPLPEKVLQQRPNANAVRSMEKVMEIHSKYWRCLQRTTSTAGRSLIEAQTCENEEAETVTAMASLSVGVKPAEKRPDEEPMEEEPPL

Usually IC50 stands for the concentration that gives 50% inhibition. In general, half-life refers to the time in which the quantity being followed falls by half. Read a low half-life as rapid decline. As to `CCCCNc1nc(Cl)nc2c1ncn2Cc1ccc(C(=O)Nc2ccccc2N)cc1`, the IC50 is 1650 nM in data set [1], more than 100000 nM in data set [2], 500 nM in data set [11] and 948 nM in data set [14]. In data set [3], this compound had a half-life at 13.8 µM of 1.2 h. Also, the Activity result in [4] was “Tde”; in data set [7], 65.62%; in data set [8] it was 0.902%; in data set [9], 49.4%; in [10] it was 20.04%; in [15] it was 71.11%. In addition, the Activity is 1.2% in data set [17]; 0.442% in [18]; “Dde” in data set [19]; 66.71% in data set [20]; “Dde” in [21]. Besides, in data set [5], the CLint amounted to 9.6 µL/min/mg. The result in data set [6] and in [13] was Active. For the same compound, the “Ratio IC50” value in [12] is listed as 4. Besides, the viability at 1 µM in [16] is 40.4%.
